Assay results as given in US10150945B2, “Cell culture device and manufacturing method therof” (JNC CORPORATION, priority 2004, dated 2018).

Test system: A549 cells (human lung cancer cells)
Experimental: The cytotoxicity of ε-polylysines, the coating material used in the invention, to A549 cells (human lung cancer cells, obtained from ATCC) was evaluated. The cytotoxicity to ε-polylysine hydrochloride (Chisso Corp.) was compared with that to α-polylysine hydrobromide (Wako Pure Chemical, average molecular weight 15,000).
A549 cells were seeded on a 96-well microplate at a density of 1×10^4 cells/well. After culturing overnight at 37° C. under 5% CO2 using DME medium (containing 10% bovine embryonic serum), the medium was removed with an aspirator, and 40 μL each of fresh medium 1.25 times more concentrated as standard was added to each well. Finally 10 μL each of a polylysine salt solution that would eventually attain the specified concentration, and cultured at 37° C. for 3 hours.
After the 3-hour culture, the medium was removed again by an aspirator, 100 μL/well of fresh medium was added, and culture continued for 46 hours. The medium was still once more replaced by 110 μL of fresh medium, 10 μL each of Cell Counting Kit-8 (Dojindo Laboratories) was added and continued to be cultured for 2 hours at 37° C. for color reaction. A plate reader (Thermo Labsystems Multiskan Ascent BIF) was used to determine the absorbance at 450 nm (with 650 nm as a reference) and calculate the viability of the cells.

α-polylysine hydrobromide
viability of the cells (FIG. 5): no difference
